This note sets out measurements from patent US8476265B2, “Compounds-801” (AstraZeneca AB, priority 2010, dated 2013).

Where a name gives a salt, the structure may show the parent alone.

For experiment [1], the target named is T1, human muscarinic acetylcholine M3 receptor (Homo sapiens, UniProt P20309).
T1 construct: expressed in transfected cells; host or cells: CHO-K1 (Chinese Hamster Ovary) cell membranes
Put plainly: Muscarinic 3 receptor binding assay ([3H]NMS competition, SPA), pIC50. The note with it: [3H]NMS 0.1 nM, CHO-K1 cell membranes expressing human M3 receptor. The procedure, abridged:
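SPA beads precoated with human M3-expressing CHO-K1 membranes were incubated 16 h at room temperature with serially diluted compound and 0.1 nM [3H]NMS (pH 7.4 HEPES buffer, MgCl2, BSA, 1% DMSO). Atropine (1 μM) defined non-specific binding; pIC50 is the 50% reduction in specific binding.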

The target in experiment [2] is T2, Adrenergic β2 (Homo sapiens, UniProt P07550).
T2 construct: Adherent H292 cells are removed from tissue culture flasks by treatment with Accutase™ cell detachment solution; endogenous in cells; host or cells: H292 cells
Briefly: Adrenergic β2 mediated cAMP production in H292 cells (AlphaScreen), concentration response. The class given is cell-based. The note with it: for EC50: 60 min, 300 μM rolipram, read-out: β2 pEC50 (converted); for β2 Intrinsic Activity: fraction relative to the maximum activity determined for formoterol. The procedure, abridged: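 Intracellular cAMP in lysates read by AlphaScreen, calibrated with cAMP standards; curves fitted for pEC50, with intrinsic activity as a fraction of formoterol's maximum. Agonist exposure 60 min at room temperature after 10 min rolipram (300 μM final), 1% DMSO, HEPES-buffered HBSS pH 7.4.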

T1 sequence (P20309 whole entry): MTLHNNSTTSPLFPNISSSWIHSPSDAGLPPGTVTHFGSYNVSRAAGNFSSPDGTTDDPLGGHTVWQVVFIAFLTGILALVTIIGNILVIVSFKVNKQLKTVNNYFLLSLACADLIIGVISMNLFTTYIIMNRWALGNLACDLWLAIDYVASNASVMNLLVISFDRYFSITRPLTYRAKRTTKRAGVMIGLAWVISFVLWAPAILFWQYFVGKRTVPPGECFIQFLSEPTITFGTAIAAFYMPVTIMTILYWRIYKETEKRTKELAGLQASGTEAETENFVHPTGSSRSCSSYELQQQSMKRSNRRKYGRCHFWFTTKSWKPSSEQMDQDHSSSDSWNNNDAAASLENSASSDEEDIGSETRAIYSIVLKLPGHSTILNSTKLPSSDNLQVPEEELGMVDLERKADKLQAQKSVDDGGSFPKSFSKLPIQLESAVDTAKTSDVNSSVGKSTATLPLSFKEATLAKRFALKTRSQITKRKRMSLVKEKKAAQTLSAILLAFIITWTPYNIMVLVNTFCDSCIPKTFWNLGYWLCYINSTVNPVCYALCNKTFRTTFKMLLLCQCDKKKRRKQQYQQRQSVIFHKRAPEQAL
T2 sequence (P07550 whole entry): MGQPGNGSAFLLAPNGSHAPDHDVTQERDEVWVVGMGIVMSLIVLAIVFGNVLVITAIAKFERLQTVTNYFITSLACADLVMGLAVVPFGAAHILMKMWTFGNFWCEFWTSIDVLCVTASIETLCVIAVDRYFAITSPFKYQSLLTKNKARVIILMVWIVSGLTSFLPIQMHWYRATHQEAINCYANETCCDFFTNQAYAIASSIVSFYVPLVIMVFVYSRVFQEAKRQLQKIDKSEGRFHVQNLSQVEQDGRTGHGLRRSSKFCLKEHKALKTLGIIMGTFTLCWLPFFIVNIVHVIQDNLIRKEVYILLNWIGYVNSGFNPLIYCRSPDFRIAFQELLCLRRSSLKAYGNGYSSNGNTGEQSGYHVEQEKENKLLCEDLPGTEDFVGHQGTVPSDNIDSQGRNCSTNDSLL

The IC50 is the concentration that inhibits the measured activity by half. Low readings indicate greater potency in that assay, high ones weaker potency in that assay. Regarding `CCC(CC)c1nc(C(=O)N2CCOC3(CCN(Cc4cccc(CCOCCC(=O)N(CCNCCc5ccc(O)c6c5OCC(=O)N6)C5CCCCC5)c4)CC3)C2)cs1` [Example 96, N-Cyclohexyl-N-(2-(2-(5-hydroxy-3-oxo-3,4-dihydro-2H-benzo[b][1,4]oxazin-8-yl)ethylamino)ethyl)-3-(3-((4-(2-(pentan-3-yl)thiazole-4-carbonyl)-1-oxa-4,9-diazaspiro[5.5]undecan-9-yl)methyl)phenethoxy)propanamide], the IC50 in experiment [1] was 0.251 nM. In experiment [2], the EC50 was 158 nM and the “β2 Intrinsic Activity” value was found to be 1.0.

Regarding `CC(C)c1cccc(C(=O)N2CCOC3(CCN(Cc4cccc(CCOCCC(=O)N(CCNCCc5ccc(O)c6c5OCC(=O)N6)C5CCCCC5)c4)CC3)C2)n1` [Example 97, N-Cyclohexyl-N-(2-(2-(5-hydroxy-3-oxo-3,4-dihydro-2H-benzo[b][1,4]oxazin-8-yl)ethylamino)ethyl)-3-(3-((4-(6-isopropylpicolinoyl)-1-oxa-4,9-diazaspiro[5.5]undecan-9-yl)methyl)phenethoxy)propanamide], the IC50 in experiment [1] was 1.26 nM. Moreover, in experiment [2], the EC50 is 158 nM and the “β2 Intrinsic Activity” value stood at 1.0.

The compound `CC(C)c1csc(C(=O)N2CCOC3(CCN(Cc4cccc(CCOCCC(=O)N(CCNCCc5ccc(O)c6c5OCC(=O)N6)C5CCCCC5)c4)CC3)C2)c1` [Example 98, N-Cyclohexyl-N-(2-(2-(5-hydroxy-3-oxo-3,4-dihydro-2H-benzo[b][1,4]oxazin-8-yl)ethylamino)ethyl)-3-(3-((4-(4-isopropylthiophene-2-carbonyl)-1-oxa-4,9-diazaspiro[5.5]undecan-9-yl)methyl)phenethoxy)propanamide] showed an IC50 in experiment [1] of 0.794 nM. For the same compound, in experiment [2], the EC50 was 200 nM and the “β2 Intrinsic Activity” value is 1.1.

Consider `CC(C)c1nc(C(=O)N2CCOC3(CN(CCc4cccc(CCOCCC(=O)N(CCNCCc5ccc(O)c6c5OCC(=O)N6)C5CCCCC5)c4)C3)C2)cs1` [Example 176, N-Cyclohexyl-N-(2-(2-(5-hydroxy-3-oxo-3,4-dihydro-2H-benzo[b][1,4]oxazin-8-yl)ethylamino)ethyl)-3-(3-(2-(8-(2-isopropylthiazole-4-carbonyl)-5-oxa-2,8-diazaspiro[3.5]nonan-2-yl)ethyl)phenethoxy)propanamide, trifluoroacetate salt], for which the IC50 in experiment [1] is 2.51 nM. In experiment [2], the EC50 was 15.8 nM and the “β2 Intrinsic Activity” value is on record as 1.2.

For `CCN(CCNCCc1ccc(O)c2c1OCC(=O)N2)C(=O)CCOCCc1cccc(CCN2CC3(C2)CN(C(=O)c2csc(C(C)C)n2)CCO3)c1` [Example 177, N-ethyl-N-(2-(2-(5-hydroxy-3-oxo-3,4-dihydro-2H-benzo[b][1,4]oxazin-8-yl)ethylamino)ethyl)-3-(3-(2-(8-(2-isopropylthiazole-4-carbonyl)-5-oxa-2,8-diazaspiro[3.5]nonan-2-yl)ethyl)phenethoxy)propanamide, trifluoroacetate salt], the IC50 in experiment [1] is 1.26 nM. Moreover, in experiment [2], the EC50 was 10 nM and the “β2 Intrinsic Activity” value worked out at 1.1.

In experiment [1], `CCCCN(CCNCCc1ccc(O)c2c1OCC(=O)N2)C(=O)CCOCCc1ccccc1OCCN1CCC2(CC1)CN(C(=O)c1csc(C(C)C)n1)CCO2` [Example 178, N-butyl-N-(2-(2-(5-hydroxy-3-oxo-3,4-dihydro-2H-benzo[b][1,4]oxazin-8-yl)ethylamino)ethyl)-3-(2-(2-(4-(2-isopropylthiazole-4-carbonyl)-1-oxa-4,9-diazaspiro[5.5]undecan-9-yl)ethoxy)phenethoxy)propanamide trifluoroacetate salt] showed an IC50 of 12.6 nM. Further, in experiment [2], the EC50 is 501 nM and the “β2 Intrinsic Activity” value was 1.2.
